Assay results reported in publication PMC9056950, “Synthesis and biochemical evaluation of cephalosporin analogues equipped with chemical tethers” (RSC Advances, 2020).
In brackets after ≈: the same amount, converted by molar mass.

Experiments:
PBP3 = molecular target: T1, PBP3 (Escherichia coli, UniProt P0AD68); experiment: thermal shift (Protein Thermal Shift dye); assay type: binding; conditions: 3 μM PBP3, 300 μM ligand, 25-95 °C at 1 °C/min; Tm increased
T1 construct: gene ftsI
T1 sequence (P0AD68 44-588): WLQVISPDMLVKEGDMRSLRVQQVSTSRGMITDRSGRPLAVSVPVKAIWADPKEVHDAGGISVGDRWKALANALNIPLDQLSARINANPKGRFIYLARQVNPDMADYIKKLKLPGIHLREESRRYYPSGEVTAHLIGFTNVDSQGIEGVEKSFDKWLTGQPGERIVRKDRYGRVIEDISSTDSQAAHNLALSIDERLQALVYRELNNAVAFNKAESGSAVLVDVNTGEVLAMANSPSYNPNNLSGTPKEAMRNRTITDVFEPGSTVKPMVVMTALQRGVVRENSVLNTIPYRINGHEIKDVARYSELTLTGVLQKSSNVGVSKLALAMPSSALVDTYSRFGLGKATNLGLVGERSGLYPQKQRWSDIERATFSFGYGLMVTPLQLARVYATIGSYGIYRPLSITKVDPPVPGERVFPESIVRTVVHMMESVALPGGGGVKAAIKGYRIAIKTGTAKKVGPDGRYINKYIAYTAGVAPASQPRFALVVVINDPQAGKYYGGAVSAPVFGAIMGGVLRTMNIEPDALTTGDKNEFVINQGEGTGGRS

S. aureus (NCTC 6571) = tested on: T2, S. aureus (NCTC 6571); experiment: microbe, parasite or virus in culture; set-up: minimum bactericidal concentration 50 on agar plates; conditions: Staphylococcus aureus, NCTC6571; read-out: MBC50 S. aureus (NCTC 6571)
T2 construct: NCTC 6571

E. coli (BW25113) = tested on: T3, E. coli (BW25113); experiment: microbe, parasite or virus in culture; set-up: minimum bactericidal concentration 50 on agar plates; conditions: Escherichia coli, read-out: MBC50 E. coli (BW25113)
T3 construct: BW25113

PBP4 = molecular target: T4, PBP4 (Bacillus subtilis, UniProt P32959); experiment: biochemical; set-up: gene pbpE; commercial protein from Generon; fluorescent dye thermal shift assay, 500 nM PBP4 with 50 uM compound, delta Tm; conditions: read-out: Average DTm/°C
T4 sequence (P32959 1-451): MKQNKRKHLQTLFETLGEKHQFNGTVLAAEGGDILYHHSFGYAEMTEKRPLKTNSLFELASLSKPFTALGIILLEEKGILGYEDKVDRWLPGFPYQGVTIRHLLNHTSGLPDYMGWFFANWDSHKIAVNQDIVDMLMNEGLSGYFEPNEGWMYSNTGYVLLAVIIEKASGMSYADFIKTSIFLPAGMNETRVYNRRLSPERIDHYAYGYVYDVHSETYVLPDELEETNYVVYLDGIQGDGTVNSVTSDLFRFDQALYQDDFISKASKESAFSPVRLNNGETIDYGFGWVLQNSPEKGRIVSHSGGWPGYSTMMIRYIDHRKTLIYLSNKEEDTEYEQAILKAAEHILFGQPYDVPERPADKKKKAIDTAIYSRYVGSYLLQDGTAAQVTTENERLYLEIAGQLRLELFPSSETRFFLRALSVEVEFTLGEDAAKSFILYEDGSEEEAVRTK
Method: The thermal shift assay was carried out using the Protein Thermal Shift™ assay kit (Applied Biosystems). 3 μM of purified E. coli PBP3 was incubated with the β-lactam analogues at 300 μM concentration in a mixture containing the Protein Thermal Shift™ Dye. The samples were then heated in a StepOnePlus™ Real-Time PCR System from 25 to 95 °C at a rate of 1 °C min^−1. Tests were carried out in triplicate and the averages plotted as the negative first derivative vs. temperature. Reference wells, i.e. solutions consisting only of only PBP3 with dye, PBP3 only, and dye only, were used as controls. Melting temperature (Tm) values were determined with and without each compound, and the change in melting temperature (ΔTm) was obtained, Fig. 2. The thermal shift assay with PBP4 was carried out using the protocol described for PBP3, with the follow deriviatisation: 500 nM of purified Bacillus subtilis PBP4 was incubated with 50 μM of the β-lactam analogues. A thermal shift assay was used to investigate the binding of the cephalexin analogues to the therapeutic target, PBP, in vitro. This assay provides a fast and inexpensive method of detecting a ligand binding to a protein of interest. Briefly, the protein is gradually heated in the presence of a fluorescent dye that binds non-specifically to the hydrophobic surfaces. […] A change in the melting temperature (Tm) when the protein is heated in the presence of a ligand, indicates a protein–ligand interaction. […] The PBPs can be divided into two main categories: high molecular mass (HMM) and low molecular mass (LMM).[13] PBP3 was chosen as a representative HMM PBP, and PBP4 as a representative LMM PBP. Cephalexin (1) has been previously reported to show good binding affinities for both PBP3 and PBP4.[14] Penicillin (11) and cefpodoxime (12) were included as positive controls. AmpC (Uniprot ID: P00811) was purchased from Abcam plc (Cambridge, UK). PBP4 (Uniprot ID: P32959) was purchased from Generon (Slough, UK).

In the case of `CC1=C(C(=O)O)N2C(=O)[C@@H](NC(=O)[C@H](NC(=O)COCC(=O)NCCOCCOCCOCCOCCNC(=O)CCCCCN3C(=O)C=CC3=O)c3ccccc3)[C@H]2SC1` [compound 2, (6R,7R)-7-((R)-30-(2,5-Dioxo-2,5-dihydro-1H-pyrrol-1-yl)-4,8,25-trioxo-2-phenyl-6,12,15,18,21-pentaoxa-3,9,24-triazatriacontanamido)-3-methyl-8-oxo-5-thia-1-azabicyclo[4.2.0]oct-2-ene-2-carboxylic acid], the ΔTm (PBP3) is reported as “all of the analogues tested caused an increase in the Tm with PBP3”, the MBC (S. aureus (NCTC 6571)) is reported as 200 µM (≈ 175 µg/mL) and the MBC (E. coli (BW25113)) is reported as > 400 µM. For the same compound, the ΔTm at 50 µM (PBP4) was -1.95 °C.

With `CC1=C(C(=O)O)N2C(=O)[C@@H](NC(=O)[C@H](N)c3ccccc3)[C@H]2SC1` [compound 1, cephalexin] the MBC (S. aureus (NCTC 6571)) was 400 µM (≈ 139 µg/mL), the MBC (E. coli (BW25113)) was > 400 µM and the ΔTm at 50 µM (PBP4) was -0.882 °C.

With `CC(=O)N[C@@H](C(=O)N[C@@H]1C(=O)N2C(C(=O)O)=C(C)CS[C@H]12)c1ccccc1` [compound 8, (6R,7R)-7-[(2R)-2-Acetamido-2-phenylacetamido]-3-methyl-8-oxo-5-thia-1-azabicyclo[4.2.0]oct-2-ene-2-carboxylic acid] the ΔTm (PBP3) was “all of the analogues tested caused an increase in the Tm with PBP3”, the MBC (S. aureus (NCTC 6571)) was 200 µM (≈ 77.9 µg/mL) and the MBC (E. coli (BW25113)) was > 400 µM. The ΔTm at 50 µM (PBP4) was -0.248 °C.

For `CC1=C(C(=O)O)N2C(=O)[C@@H](NC(=O)[C@H](NC(=O)CCCC(=O)O)c3ccccc3)[C@H]2SC1` [compound 7, (6R,7R)-7-[(2R)-2-(4-Carboxybutanamido)-2-phenylacetamido]-3-methyl-8-oxo-5-thia-1-azabicyclo[4.2.0]oct-2-ene-2-carboxylic acid], the ΔTm (PBP3) was “all of the analogues tested caused an increase in the Tm with PBP3”, the MBC (S. aureus (NCTC 6571)) was 200 µM (≈ 92.3 µg/mL) and the MBC (E. coli (BW25113)) was > 400 µM. For the same compound, the ΔTm at 50 µM (PBP4) was -0.422 °C.

In the case of `CC1=C(C(=O)O)N2C(=O)[C@@H](NC(=O)[C@H](NC(=O)CCCC(=O)ON3C(=O)CCC3=O)c3ccccc3)[C@H]2SC1` [compound 6, (6R,7R)-7-[(2R)-2-{5-[(2,5-Dioxopyrrolidin-1-yl)oxy]-5-oxopentanamido}-2-phenylacetamido]-3-methyl-8-oxo-5-thia-1-azabicyclo[4.2.0]oct-2-ene-2-carboxylic acid], the ΔTm (PBP3) is reported as “all of the analogues tested caused an increase in the Tm with PBP3”, the MBC (S. aureus (NCTC 6571)) is reported as 200 µM (≈ 112 µg/mL) and the MBC (E. coli (BW25113)) is reported as > 400 µM. It also gave a ΔTm at 50 µM (PBP4) of -0.708 °C.

With `COCC1=C(C(=O)O)N2C(=O)[C@@H](NC(=O)/C(=N\OC)c3csc(N)n3)[C@H]2SC1` [compound 12, cefpodoxime] the MBC (S. aureus (NCTC 6571)) was 100 µM (≈ 42.7 µg/mL), the MBC (E. coli (BW25113)) was 100 µM (≈ 42.7 µg/mL) and the ΔTm at 50 µM (PBP4) was -0.695 °C.

`CC1=C(C(=O)O)N2C(=O)[C@@H](NC(=O)[C@H](NC(=O)OC(C)(C)C)c3ccccc3)[C@H]2SC1` [compound 9, (6R,7R)-7-[(2R)-2-{[(Tert-butoxy)carbonyl]amino}-2-phenylacetamido]-3-methyl-8-oxo-5-thia-1-azabicyclo[4.2.0]oct-2-ene-2-carboxylic acid] was tested, and the ΔTm (PBP3) was “all of the analogues tested caused an increase in the Tm with PBP3”, the MBC (S. aureus (NCTC 6571)) was 50 µM (≈ 22.4 µg/mL) and the MBC (E. coli (BW25113)) was > 400 µM. The ΔTm at 50 µM (PBP4) was -0.809 °C.

In the case of `CC1=C(C(=O)O)N2C(=O)[C@@H](NC(=O)[C@H](NC(=O)CCCCCN3C(=O)C=CC3=O)c3ccccc3)[C@H]2SC1` [compound 3, (6R,7R)-7-((R)-2-(6-(2,5-dioxo-2,5-dihyrdo-1H-pyrrol-1-yl)hexanamido)-2-phenylacetamido)-3-methyl-8-oxo-5-thia-1-azabicyclo[4.2.0]oct-2-ene-2-carboxylic acid], the ΔTm (PBP3) is reported as “all of the analogues tested caused an increase in the Tm with PBP3”, the MBC (S. aureus (NCTC 6571)) is reported as 200 µM (≈ 108 µg/mL) and the MBC (E. coli (BW25113)) is reported as > 400 µM. It also gave a ΔTm at 50 µM (PBP4) of -0.378 °C.

`CC1=C(C(=O)O)N2C(=O)[C@@H](NC(=O)[C@H](NC(=O)CCCCC3CCSS3)c3ccccc3)[C@H]2SC1` (stereo partly drawn) [compound 5, (6R,7R)-7-[(2R)-2-[5-(1,2-Dithiolan-3-yl)pentanamido]-2-phenylacetamido]-3-methyl-8-oxo-5-thia-1-azabicyclo[4.2.0]oct-2-ene-2-carboxylic acid] was tested, and the ΔTm (PBP3) was “all of the analogues tested caused an increase in the Tm with PBP3”, the MBC (S. aureus (NCTC 6571)) was 50 µM (≈ 26.8 µg/mL) and the MBC (E. coli (BW25113)) was > 400 µM. For the same compound, the ΔTm at 50 µM (PBP4) was -0.464 °C.

With `CC1=C(C(=O)O)N2C(=O)[C@@H](NC(=O)[C@H](NC(=O)CCCCN)c3ccccc3)[C@H]2SC1` [compound 10, (6R,7R)-7-[(2R)-2-(5-Aminopentanamido)-2-phenylacetamido]-3-methyl-8-oxo-5-thia-1-azabicyclo[4.2.0]oct-2-ene-2-carboxylic acid] the ΔTm (PBP3) was “all of the analogues tested caused an increase in the Tm with PBP3”, the MBC (S. aureus (NCTC 6571)) was 50 µM (≈ 22.3 µg/mL) and the MBC (E. coli (BW25113)) was > 400 µM. The ΔTm at 50 µM (PBP4) was -0.0272 °C.

With `C#CCCC(=O)N[C@@H](C(=O)N[C@@H]1C(=O)N2C(C(=O)O)=C(C)CS[C@H]12)c1ccccc1` [compound 4, (6R,7R)-3-Methyl-8-oxo-7-[(2R)-2-(pent-4-ynamido)-2-phenylacetamido]-5-thia-1-azabicyclo[4.2.0]oct-2-ene-2-carboxylic acid] the ΔTm (PBP3) was “all of the analogues tested caused an increase in the Tm with PBP3”, the MBC (S. aureus (NCTC 6571)) was 50 µM (≈ 21.4 µg/mL) and the MBC (E. coli (BW25113)) was > 400 µM. For the same compound, the ΔTm at 50 µM (PBP4) was -0.853 °C.
